Results on one compound are retold here after ChEMBL document CHEMBL6071131, “New substituted benzoxazine derivatives as potent inducers of membrane permeability and cell death” (Bioorg Med Chem, 2024).

A word on the IC50: it is the concentration that inhibits the measured activity by half. Read a low IC50 as greater potency.

The subject of experiment [1] is MCF7. The experiment can be described thus: Antiproliferative activity against human MCF7 cells incubated for 5 days by PrestoBlue assay. The experiment is classed as functional, cell-based. The conditions noted are these: MCF7, 120 h.
Experiment [2] concerns HCT-116. The experiment can be described thus: Antiproliferative activity against human HCT-116 cells incubated for 5 days by PrestoBlue assay. The experiment is classed as functional, cell-based. To be noted: HCT-116, 120 h.

Turning to `Cc1ccc(S(=O)(=O)N2CC(CCn3cnc4c(Cl)nc(Cl)nc43)Oc3ccccc32)cc1` (configuration not stated), the IC50 in experiment [1] was 13 µM; in experiment [2], 7.06 µM.
